From PubChem BioAssay (NCI)
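96-well plates; 48 h exposure; 5 concentrations. Endpoints by linear interpolation between flanking doses. Not reached: highest tested concentration assigned. TGI: total growth inhibition.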

Key:
Assay in all cases: NCI-60 cell line screen, 48 h
A498 renal = system: A498 renal
SW-620 colon = system: SW-620 colon
KM20L2 colon = system: KM20L2 colon
OVCAR-4 ovarian = system: OVCAR-4 ovarian
RXF-631 renal = system: RXF-631 renal
MALME-3M melanoma = system: MALME-3M melanoma
RPMI-8226 leukemia = system: RPMI-8226 leukemia
SNB-75 CNS = system: SNB-75 CNS
HCT-116 colon = system: HCT-116 colon
LOX IMVI melanoma = system: LOX IMVI melanoma
HCC-2998 colon = system: HCC-2998 colon
DMS 114 small cell lung = system: DMS 114 small cell lung
IGROV1 ovarian = system: IGROV1 ovarian
DMS 273 small cell lung = system: DMS 273 small cell lung
MOLT-4 leukemia = system: MOLT-4 leukemia
HOP-92 NSCLC = system: HOP-92 NSCLC
SNB-19 CNS = system: SNB-19 CNS
NCI-H460 lung = system: NCI-H460 lung
TK-10 renal = system: TK-10 renal
M19-MEL melanoma = system: M19-MEL melanoma
NCI-H23 lung = system: NCI-H23 lung
HOP-18 NSCLC = system: HOP-18 NSCLC
NCI-H522 lung = system: NCI-H522 lung
M14 melanoma = system: M14 melanoma
CAKI-1 renal = system: CAKI-1 renal
SR leukemia = system: SR leukemia
SK-MEL-2 melanoma = system: SK-MEL-2 melanoma
A549 NSCLC = system: A549 NSCLC
SK-OV-3 ovarian = system: SK-OV-3 ovarian
HT29 colon = system: HT29 colon
SK-MEL-5 melanoma = system: SK-MEL-5 melanoma
HL-60(TB) leukemia = system: HL-60(TB) leukemia
ACHN renal = system: ACHN renal
OVCAR-5 ovarian = system: OVCAR-5 ovarian
UO-31 renal = system: UO-31 renal
CCRF-CEM leukemia = system: CCRF-CEM leukemia
COLO 205 colon = system: COLO 205 colon
UACC-257 melanoma = system: UACC-257 melanoma
UACC-62 melanoma = system: UACC-62 melanoma
NCI-H226 lung = system: NCI-H226 lung
HOP-62 NSCLC = system: HOP-62 NSCLC
U251 CNS = system: U251 CNS
DLD-1 colon = system: DLD-1 colon
SF-295 CNS = system: SF-295 CNS
OVCAR-3 ovarian = system: OVCAR-3 ovarian
SNB-78 CNS = system: SNB-78 CNS
OVCAR-8 ovarian = system: OVCAR-8 ovarian
SF-268 CNS = system: SF-268 CNS
KM12 colon = system: KM12 colon
786-0 renal = system: 786-0 renal
HCT-15 colon = system: HCT-15 colon
RXF 393 renal = system: RXF 393 renal
EKVX NSCLC = system: EKVX NSCLC
K-562 leukemia = system: K-562 leukemia
LXFL 529 NSCLC = system: LXFL 529 NSCLC
SK-MEL-28 melanoma = system: SK-MEL-28 melanoma
XF 498 CNS = system: XF 498 CNS
SN12C renal = system: SN12C renal
SF-539 CNS = system: SF-539 CNS

CC(=O)O[C@H]1CC[C@@]2(C)C(CC[C@]3(C)C2CC[C@]2(C)Oc4c(C)cc(O)cc4C[C@@H]23)C1(C)C (some centres not stated)
TGI (A498 renal): 26 µM | TGI (SW-620 colon): 5.71 µM | TGI (KM20L2 colon): 19.2 µM | TGI (OVCAR-4 ovarian): 22.2 µM | TGI (RXF-631 renal): 19.4 µM | TGI (MALME-3M melanoma): 22.8 µM | TGI (RPMI-8226 leukemia): 6.96 µM | TGI (SNB-75 CNS): 8.12 µM | TGI (HCT-116 colon): 18.1 µM | TGI (LOX IMVI melanoma): 23.8 µM | TGI (HCC-2998 colon): 22.2 µM | TGI (DMS 114 small cell lung): 26.7 µM | TGI (IGROV1 ovarian): 30 µM | TGI (DMS 273 small cell lung): 12.7 µM | TGI (MOLT-4 leukemia): 9.75 µM | TGI (HOP-92 NSCLC): 18.2 µM | TGI (SNB-19 CNS): 14.4 µM | TGI (NCI-H460 lung): 16.5 µM | TGI (TK-10 renal): 29.3 µM | TGI (M19-MEL melanoma): 25.8 µM | TGI (NCI-H23 lung): 21.6 µM | TGI (HOP-18 NSCLC): 26.4 µM | TGI (NCI-H522 lung): 21.5 µM | TGI (M14 melanoma): 27.5 µM | TGI (CAKI-1 renal): 21.8 µM | TGI (SR leukemia): 7.12 µM | TGI (SK-MEL-2 melanoma): 21.4 µM | TGI (A549 NSCLC): 21.2 µM | TGI (SK-OV-3 ovarian): 22.2 µM | TGI (HT29 colon): 23.9 µM | TGI (SK-MEL-5 melanoma): 18.4 µM | TGI (HL-60(TB) leukemia): 14.7 µM | TGI (ACHN renal): 17.5 µM | TGI (OVCAR-5 ovarian): 23.6 µM | TGI (UO-31 renal): 14.3 µM | TGI (CCRF-CEM leukemia): 16.8 µM | TGI (COLO 205 colon): 29.7 µM | TGI (UACC-257 melanoma): 22.8 µM | TGI (UACC-62 melanoma): 23.7 µM | TGI (NCI-H226 lung): 35.3 µM | TGI (HOP-62 NSCLC): 30.6 µM | TGI (U251 CNS): 7.96 µM | TGI (DLD-1 colon): 27.1 µM | TGI (SF-295 CNS): 5.09 µM | TGI (OVCAR-3 ovarian): 25.7 µM | TGI (SNB-78 CNS): 21.8 µM | TGI (OVCAR-8 ovarian): 23.8 µM | TGI (SF-268 CNS): 21.4 µM | TGI (KM12 colon): 22.6 µM | TGI (786-0 renal): 4.44 µM | TGI (HCT-15 colon): 14.9 µM | TGI (RXF 393 renal): 7.09 µM | TGI (EKVX NSCLC): 46.9 µM | TGI (K-562 leukemia): 29.3 µM | TGI (LXFL 529 NSCLC): 13.6 µM | TGI (SK-MEL-28 melanoma): 22.9 µM

O=c1[nH]c(=O)n(C2CC(O)C(CO)O2)cc1C(OCC(F)(F)F)OCC(F)(F)F (configuration not stated)
TGI (A498 renal): > 100 µM | TGI (SW-620 colon): > 100 µM | TGI (KM20L2 colon): > 100 µM | TGI (OVCAR-4 ovarian): > 100 µM | TGI (RXF-631 renal): > 100 µM | TGI (MALME-3M melanoma): > 100 µM | TGI (XF 498 CNS): > 100 µM | TGI (RPMI-8226 leukemia): > 100 µM | TGI (SNB-75 CNS): > 100 µM | TGI (LOX IMVI melanoma): > 100 µM | TGI (HCC-2998 colon): > 100 µM | TGI (SN12C renal): > 100 µM | TGI (DMS 114 small cell lung): > 100 µM | TGI (IGROV1 ovarian): > 100 µM | TGI (DMS 273 small cell lung): > 100 µM | TGI (MOLT-4 leukemia): > 100 µM | TGI (HOP-92 NSCLC): > 100 µM | TGI (SNB-19 CNS): > 100 µM | TGI (NCI-H460 lung): > 100 µM | TGI (TK-10 renal): > 100 µM | TGI (M19-MEL melanoma): > 100 µM | TGI (NCI-H23 lung): > 100 µM | TGI (NCI-H522 lung): > 100 µM | TGI (M14 melanoma): > 100 µM | TGI (CAKI-1 renal): > 100 µM | TGI (SK-MEL-2 melanoma): > 100 µM | TGI (A549 NSCLC): > 100 µM | TGI (SF-539 CNS): > 100 µM | TGI (SK-OV-3 ovarian): > 100 µM | TGI (HT29 colon): > 100 µM | TGI (SK-MEL-5 melanoma): > 100 µM | TGI (HL-60(TB) leukemia): > 100 µM | TGI (ACHN renal): > 100 µM | TGI (OVCAR-5 ovarian): > 100 µM | TGI (UO-31 renal): > 100 µM | TGI (CCRF-CEM leukemia): > 100 µM | TGI (COLO 205 colon): > 100 µM | TGI (UACC-257 melanoma): > 100 µM | TGI (UACC-62 melanoma): > 100 µM | TGI (HOP-62 NSCLC): > 100 µM | TGI (U251 CNS): > 100 µM | TGI (DLD-1 colon): > 100 µM | TGI (SF-295 CNS): > 100 µM | TGI (OVCAR-3 ovarian): > 100 µM | TGI (SNB-78 CNS): > 100 µM | TGI (OVCAR-8 ovarian): > 100 µM | TGI (SF-268 CNS): > 100 µM | TGI (KM12 colon): > 100 µM | TGI (786-0 renal): > 100 µM | TGI (RXF 393 renal): > 100 µM | TGI (EKVX NSCLC): > 100 µM | TGI (K-562 leukemia): > 100 µM | TGI (LXFL 529 NSCLC): > 100 µM | TGI (SK-MEL-28 melanoma): > 100 µM

CNS(=O)(=O)NN(C)S(=O)(=O)c1ccc(Cl)cc1
TGI (A498 renal): > 100 µM | TGI (SW-620 colon): > 100 µM | TGI (KM20L2 colon): > 100 µM | TGI (OVCAR-4 ovarian): > 100 µM | TGI (RXF-631 renal): > 100 µM | TGI (MALME-3M melanoma): > 100 µM | TGI (XF 498 CNS): > 100 µM | TGI (RPMI-8226 leukemia): > 100 µM | TGI (SNB-75 CNS): > 100 µM | TGI (HCT-116 colon): > 100 µM | TGI (LOX IMVI melanoma): > 100 µM | TGI (HCC-2998 colon): > 100 µM | TGI (SN12C renal): > 100 µM | TGI (DMS 114 small cell lung): > 100 µM | TGI (IGROV1 ovarian): > 100 µM | TGI (DMS 273 small cell lung): > 100 µM | TGI (MOLT-4 leukemia): > 100 µM | TGI (SNB-19 CNS): > 100 µM | TGI (TK-10 renal): > 100 µM | TGI (M19-MEL melanoma): > 100 µM | TGI (NCI-H23 lung): > 100 µM | TGI (NCI-H522 lung): > 100 µM | TGI (M14 melanoma): > 100 µM | TGI (CAKI-1 renal): > 100 µM | TGI (SR leukemia): > 100 µM | TGI (SK-MEL-2 melanoma): > 100 µM | TGI (A549 NSCLC): > 100 µM | TGI (SF-539 CNS): > 100 µM | TGI (HT29 colon): > 100 µM | TGI (SK-MEL-5 melanoma): > 100 µM | TGI (HL-60(TB) leukemia): > 100 µM | TGI (ACHN renal): > 100 µM | TGI (UO-31 renal): > 100 µM | TGI (CCRF-CEM leukemia): > 100 µM | TGI (COLO 205 colon): > 100 µM | TGI (UACC-257 melanoma): > 100 µM | TGI (UACC-62 melanoma): > 100 µM | TGI (NCI-H226 lung): > 100 µM | TGI (HOP-62 NSCLC): > 100 µM | TGI (U251 CNS): > 100 µM | TGI (DLD-1 colon): > 100 µM | TGI (SF-295 CNS): > 100 µM | TGI (OVCAR-3 ovarian): > 100 µM | TGI (OVCAR-8 ovarian): > 100 µM | TGI (SF-268 CNS): > 100 µM | TGI (KM12 colon): > 100 µM | TGI (786-0 renal): > 100 µM | TGI (HCT-15 colon): > 100 µM | TGI (RXF 393 renal): > 100 µM | TGI (EKVX NSCLC): > 100 µM | TGI (K-562 leukemia): > 100 µM | TGI (LXFL 529 NSCLC): > 100 µM
